Assay results reported in publication PMC12195677, “In Vitro Effect of Ferruginol, Tanshinone, and Carnosol Analogues on the Proliferation of Three Breast Cancer Cell Lines” (Molecules, 2025).
Like-named read-outs stand apart in the source and are kept apart here.

Assays:
SUM149 cells = test: Colony formation (clonogenic) assay, SUM149; format: cell-based, Human; settings: 10 μM
Procedure: Further evaluation of various promising compounds using breast cancer cells included analysis of colony-forming inhibition capabilities and investigations into their specific mechanistic pathways of action. Thus, the anchorage-dependent colony formation assay, also known as the clonogenic assay, was conducted. This method in cancer research evaluates the ability of single cells to grow into colonies when attached to a surface and can measure a cell’s ability to undergo “unlimited” division and form a colony (usually defined as ≥50 cells).
The clonogenic assay offers comprehensive insights into the compound’s overall efficacy and is regarded as the definitive method for assessing post-treatment reproductive cell death (both cytotoxic and cytostatic effects). The extended duration of the experiment simultaneously provides valuable data on the compounds’ stability over time, which are not detected in short-term viability assays. […] In the MDA-MB231 cellular model (Figure 3), the evaluated compounds successfully eliminated the cells’ capacity to establish colonies (for images, see Figures S3 and S4).
MDA-MB-231 (0.8 × 10^6 cells/well) and SUM-149 cells (1.5 × 10^6 cells/well) were plated on a 6-well plate. Two days later, cell media was changed to 5% FBS, and cells were incubated at 37 °C in a 5% CO2 atmosphere for 1 h before the vehicle (0.1% DMSO) or compound (5–10μM) was added. After 72 h of treatment, cells were trypsinized and reseeded at 800 cells/mL (MDA-MB231) and 1200 cells/mL (SUM149) per well in 6-well plates. After 10 days of culture, the media was removed from the wells and washed once with cold PBS. The colonies were stained with 5 mL of 1% Crystal Violet for 30 min. The dishes were fixed by methanol, rinsed with water three times, and air-dried, and the colonies were counted using ImageJ version 1.5.4 (NIH, Bethesda, MD, USA).

human BJ fibroblasts = settings: cited from earlier work
SUM149 [1] = settings: cited from earlier work; for TI (therapeutic index) SUM149: EC50 BJ fibroblasts / EC50 SUM149; for Effectiveness against SUM149 cell line (in words): conclusions, Table 1 values of these compounds ref 13
MDA-MB231 [2] = settings: cited from earlier work; for TI (therapeutic index) MDA-MB231: EC50 BJ fibroblasts / EC50 MDA-MB231
MCF07 [3] = settings: cited from earlier work; for TI (therapeutic index) MCF07: EC50 BJ fibroblasts / EC50 MCF07
[4] = test system: MDA-MB231 breast cancer cells; test: Cell morphology by brightfield microscopy; format: cell-based, Human; settings: 24 h treatment, brightfield 10×; 1 and 6 at 5 μM, 10 at 10 μM
Source text: Brightfield microscopy images of MDA-MB231 breast cancer cells are indicated in Figure 6 to highlight the morphological changes that occur upon treatment with compounds 1, 6, and 10 as representative compounds. […] The precise mechanism of cell death for other compounds remained unclear.
Representative images were collected using 10× objective with a Leica DMi1 Microscope (Leica microsystems, Wetzlar, Germany). MDA-MB231 cells were imaged with a vehicle as the negative control, staurosporine as the positive control (2 μM), or compounds with results shown in representative images for 24 h.

[5] = test system: several breast cancer cell lines; parameters: method as in PMID 36831660; settings: cited from earlier work; for therapeutic index range: range over the named compounds and cell lines (Table 1)
MDA-MB231 [6] = test: CellTiter-Glo cell viability/proliferation assay, MDA-MB231; format: cell-based, Human; settings: for TI (therapeutic index) MDA-MB231: EC50 BJ fibroblasts / EC50 MDA-MB231; for IC50: Homo sapiens, MDA-MB-231, 72 h incubation, CellTiter-Glo, mean ± SD, read-out: Cytotoxicity IC50, MDA-MB231
Procedure: (§1) The compounds were systematically assessed through multiple biological testing platforms to establish their relative effectiveness and explore potential correlations between chemical structure and biological function. Firstly, their ability to inhibit the proliferation of three specific breast cancer linages (SUM149, MDA-MB231, MCF07) was evaluated in vitro by using the established CellTiter-Glo® [18, 19] cellular proliferation assay.
(§2) Human cell lines were incubated at 37 °C in a 5% CO2 atmosphere and maintained under sterile conditions. Cells were tested for Mycoplasma (Lonza, Alpharetta, GA, USA) using the manufacturer’s conditions prior to experiments. Cell lines were purchased from American Type Culture Collection (ATCC, Manassas, VA, USA), and SUM149 was obtained from Asterand (Detroit, MI, USA) and cultured without antibiotics unless stated. Cells were cultured in Eagle’s Minimum Essential Medium (EMEM), DMEM, or F12 from ATCC supplemented with 10% fetal bovine serum (FBS, Hyclone, Logan, UT, USA) and 1% GlutaMAX. Human BJ fibroblast cells (ATCC, CRL-2522) were supplemented with 10% fetal bovine serum (FBS, Hyclone, Logan, UT, USA) and 1% GlutaMAX. BJ cells were cultured in EMEM media, and breast cancer cells (MDA-MB-231, MCF07) were cultured in DMEM. SUM149 was cultured in Ham’s F12 supplemented with 1% GlutaMAX,1% Pen/Step, 2 μM cortisol, and 1 ug/mL insulin. Cells were grown to 80% confluence densities as recommended by ATCC.
(§3) Cytotoxicity evaluation was performed using the CellTiter-Glo Luminescent Cell Viability Assay kit (G7570, Promega, Madison, WI, USA), according to the manufacturer’s instructions. Briefly, the cell concentrations used were experimentally determined to ensure logarithmic growth during the 72 h duration of the experiment and avoid adverse effects on cell growth by DMSO exposure. To proceed, […] cells/well were seeded in 96-well white flat-bottomed plates (#3610 Corning, Corning, NY, USA) in […]. The plates were incubated at 37 °C in 5% CO2 for 24 h before drugging. Test compounds (10 mM in DMSO) in eight 2-fold serial dilutions were dispensed to assay plates. The final concentration of DMSO was 0.3% (v/v) in each well. The positive controls included staurosporine (10 μM) and/or gambogic acid (10 μM). The plates were incubated for 72 h at 37 °C in 5% CO2, then quenched with CellTiter-Glo® (Promega, Madison, WI, USA, 50 uL/well), centrifuged at 1000 rpm for 1 min, and incubated at RT for 20 min. Luminescence was recorded with a plate reader (CLARIOstar Plus, BMG LabTech, Ortenberg, Germany). The mean luminescence of each experimental treatment group was normalized as a percentage of the mean intensity of untreated controls. EC50 values were calculated from dose-response curve-fitting via non-linear regression using GraphPad Prism 9.0 (GraphPad Software, San Diego, CA, USA). A therapeutic index (TI) between normal and tumor cell lines can be determined (EC50 non-neoplastic cell line BJ)/(EC50 cancer cell line).

SUM149 [7] = test: CellTiter-Glo cell viability/proliferation assay, SUM149; format: cell-based, Human; settings: for TI (therapeutic index) SUM149: EC50 BJ fibroblasts / EC50 SUM149; for IC50: Homo sapiens, SUM149, 72 h incubation, CellTiter-Glo, mean ± SD, read-out: Cytotoxicity IC50, SUM149
Procedure: as §1, §2, §3

[8] = CellTiter-Glo cell viability assay, non-neoplastic BJ fibroblasts; format: cell-based; settings: BJ fibroblast cells (non-neoplastic, ATCC CRL-2522), non-neoplastic human BJ fibroblasts, mean ± SD, read-out: Cytotoxicity IC50, BJ
Procedure: as §2, §3

MCF07 [9] = test: CellTiter-Glo cell viability/proliferation assay, MCF07; format: cell-based, Human; settings: for TI (therapeutic index) MCF07: EC50 BJ fibroblasts / EC50 MCF07; for IC50: Homo sapiens, 72 h incubation, CellTiter-Glo, mean ± SD, read-out: Cytotoxicity IC50, MCF07
Procedure: as §1, §2, §3

[10] = read-out: Cytotoxicity IC50, BJ, non-neoplastic human BJ fibroblasts, 72 h, CellTiter-Glo, mean ± SD
[11] = read-out: Cytotoxicity IC50, SUM149, 72 h incubation, CellTiter-Glo, mean ± SD
[12] = read-out: Cytotoxicity IC50, MDA-MB231, 72 h incubation, CellTiter-Glo, mean ± SD
[13] = read-out: Cytotoxicity IC50, MCF07, 72 h incubation, CellTiter-Glo, mean ± SD

| Compound | IC50 (human BJ fibroblasts; [10]) [µM] | IC50 (SUM149 [1]; [11]) [µM] | TI (therapeutic index) MDA-MB231 (MDA-MB231 [2]) | IC50 (MDA-MB231 [2]; [12]) [µM] | TI (therapeutic index) MCF07 (MCF07 [3]) | IC50 (MCF07 [3]; [13]) [µM] | TI (therapeutic index) SUM149 (SUM149 [1]) | therapeutic index range [5] | TI (therapeutic index) MDA-MB231 (MDA-MB231 [6]) | IC50 (MDA-MB231 [6]) [µM] | TI (therapeutic index) SUM149 (SUM149 [7]) | IC50 (SUM149 [7]) [µM] | IC50 at 72 h [8] [µM] | TI (therapeutic index) MCF07 (MCF07 [9]) | IC50 (MCF07 [9]) [µM] | other results |
| --- | --- | --- | --- | --- | --- | --- | --- | --- | --- | --- | --- | --- | --- | --- | --- | --- |
| CC(C)c1cc2c(cc1O)[C@@]1(C)CCCC(C)(C)[C@@H]1CC2 [Compound 1, ferruginol] | > 50 | > 50 | >6 | 8.3 ± 1.4 | >3 | 19 ± 1.5 |  |  |  |  |  |  |  |  |  | Colony-forming ability of SUM149 cells (SUM149 cells): notable exceptions; Morphological changes (early apoptosis) [4]: Membrane blebbing |
| CC(C)c1cc2c(cc1O)[C@@]1(C)CCC[C@@](C)(CN)[C@@H]1CC2 [Compound 2, 12-hydroxydehydroabietylamine] |  |  | 15 |  | 7 |  | 17 |  |  |  |  |  |  |  |  | IC50 (human BJ fibroblasts): 75 ± 6.2 µM; IC50 (SUM149 [1]): 4.4 ± 0.3 µM; IC50 (MDA-MB231 [2]): 5.1 ± 0.6 µM; IC50 (MCF07 [3]): 10 ± 1.5 µM |
| CC(C)c1cc2c(cc1O)[C@@]1(C)CCC[C@@](C)(CN3C(=O)c4ccccc4C3=O)[C@@H]1CC2 [Compound 5, 18-(phthalimid-2-yl)ferruginol] | 74.8 ± 5.3 | 4.4 ± 0.2 | 9 | 8.2 ± 0.5 | 6 | 13 ± 0.6 | 17 | 6–43 |  |  |  |  |  |  |  |  |
| CC(C)c1cc2c(cc1O)[C@@]1(C)CCC[C@@](C)(CN3C(=O)c4cccc(F)c4C3=O)[C@@H]1CC2 [Compound 6] |  |  |  |  |  |  |  |  | 7 | 9.4 ± 0.9 | 13 | 4.8 ± 0.2 | 63.5 ± 6.3 | 12 | 5.4 ± 0.6 | Morphological changes (early apoptosis) [4]: Membrane blebbing |
| CC(C)c1cc2c(cc1O)[C@@]1(C)CCC[C@@](C)(CN3C(=O)c4ccc(F)cc4C3=O)[C@@H]1CC2 [Compound 7] |  |  |  |  |  |  |  |  | >7 | 7.6 ± 0.2 | >12 | 4.3 ± 0.1 | > 50 | >7 | 7 ± 0.6 |  |
| COc1cccc2c1C(=O)N(C[C@]1(C)CCC[C@]3(C)c4cc(O)c(C(C)C)cc4CC[C@@H]13)C2=O [Compound 8, 12-Hydroxy-N,N-(3-methoxyphthaloyl)dehydroabietylamine] |  |  |  |  |  |  |  |  | ≈1 | 54.6 ± 5 | 12 | 5.3 ± 0.1 | 61.2 ± 5.4 | 6 | 11 ± 1.4 |  |
| COc1ccc2c(c1)C(=O)N(C[C@]1(C)CCC[C@]3(C)c4cc(O)c(C(C)C)cc4CC[C@@H]13)C2=O [Compound 9, 12-Hydroxy-N,N-(4-methoxyphthaloyl)dehydroabietylamine] |  |  |  |  |  |  |  |  | 7 | 8.2 ± 0.8 | 14 | 4.3 ± 0.2 | 58.9 ± 5.7 | 5 | 12 ± 1.2 |  |
| CC(C)C1=CC2=C(C(=O)C1=O)[C@@]1(C)CCC[C@@](C)(CN3C(=O)c4ccccc4C3=O)[C@@H]1CC2 [Compound 10] | 35.4 ± 5 | 1.5 ± 0.4 | 13 | 2.8 ± 0.4 | 15 | 2.3 ± 1.1 | 24 | 6–43 |  |  |  |  |  |  |  | Colony-forming ability of SUM149 cells (SUM149 cells): notable exceptions; Effectiveness against SUM149 cell line (in words) (SUM149 [1]): notable effectiveness; Morphological changes (early apoptosis) [4]: Membrane blebbing |
| COC(=O)[C@]1(C)CCC[C@]2(C)C3=C(C=C(C(C)C)C(=O)C3=O)CC[C@@H]12 [Compound 11] | 56.5 ± 6.1 | 1.3 ± 0.6 | 15 | 3.9 ± 0.8 | 7 | 8.3 ± 0.9 | 43 | 6–43 |  |  |  |  |  |  |  | Colony-forming ability of SUM149 cells (SUM149 cells): notable exceptions; Effectiveness against SUM149 cell line (in words) (SUM149 [1]): notable effectiveness |
| CC(C)c1cc2c(c(O)c1O)[C@@]1(C)CCC[C@@](C)(CN3C(=O)c4ccccc4C3=O)[C@@H]1CC2 [Compound 12] |  |  | 12 |  | 7 |  | 18 | 6–43 |  |  |  |  |  |  |  | IC50 (human BJ fibroblasts): 32.5 ± 5 µM; IC50 (SUM149 [1]): 1.8 ± 0.2 µM; IC50 (MDA-MB231 [2]): 2.8 ± 0.2 µM; IC50 (MCF07 [3]): 4.6 ± 0.6 µM |
| COC(=O)[C@]1(C)CCC[C@]2(C)c3c(cc(C(C)C)c(O)c3O)CC[C@@H]12 [Compound 13] |  |  | 6 |  | ≈1 |  | ≈1 |  |  |  |  |  |  |  |  | Bioactivity across the tested cell lines (in words) ([5]; conclusions, Table 1 values of this compound ref 13): minimal activity; IC50 (human BJ fibroblasts): 57.6 ± 3 µM; IC50 (SUM149 [1]): > 50 µM; IC50 (MDA-MB231 [2]): 9.4 ± 0.4 µM; IC50 (MCF07 [3]): > 50 µM |
